Literature values as cited in PMC10146281, “Pharmacokinetic and Pharmacodynamic Characteristics of Pelubiprofen Tromethamine vs. Pelubiprofen in Healthy Subjects” (Pharmaceutics, 2023).
Read-outs that look alike come from different tables or passages of the source.

Details: cited from earlier work

## CC(C)Cc1ccc(C(C)C(=O)O)cc1.N=C(N)NCCC[C@H](N)C(=O)O (centres unmarked) [ibuprofen arginate]
In vivo
  Cmax: approximately 30 mg/L

## CC(C)Cc1ccc(C(C)C(=O)O)cc1 (centres unmarked) [ibuprofen]
  Cmax: approximately 24 mg/L
